Measurements: ChEMBL document CHEMBL1127151, “Derivatives of cyclosporin at position 2 as probes for cyclophilin” (1993)

Key:
[1] = In vitro binding affinity of compound was measured to Cyclophilin under competitive ELISA system, activity relative to compound 1
Mus musculus = species on record: Mus musculus; test: The immunosuppressive activity of compound was measured with the help of a mixed lymphocyte reaction in mouse (MLR_M), activity relative to compound 1; assay type: functional
T-cell = test: The immunosuppressive activity of compound was measured with the help of a reporter gene assay (IL2_RGA), activity relative to compound 1; assay type: functional, Homo sapiens

C/C=C/C[C@@H](C)[C@@H](O)[C@H]1C(=O)N[C@@H](CC(Cl)Cl)C(=O)N(C)CC(=O)N(C)[C@@H](CC(C)C)C(=O)N[C@@H](C(C)C)C(=O)N(C)[C@@H](CC(C)C)C(=O)N[C@@H](C)C(=O)N[C@H](C)C(=O)N(C)[C@@H](CC(C)C)C(=O)N(C)[C@@H](CC(C)C)C(=O)N(C)C(C(C)C)C(=O)N1C (single isomer, unassigned)
Ratio [1]: 250
Ratio (Mus musculus): 135
Ratio (T-cell): 200

C/C=C/C[C@@H](C)[C@@H](O)[C@H]1C(=O)N[C@@H]([C@H](O)CC)C(=O)N(C)CC(=O)N(C)[C@@H](CC(C)C)C(=O)N[C@@H](C(C)C)C(=O)N(C)[C@@H](CC(C)C)C(=O)N[C@@H](C)C(=O)N[C@H](C)C(=O)N(C)[C@@H](CC(C)C)C(=O)N(C)[C@@H](CC(C)C)C(=O)N(C)C(C(C)C)C(=O)N1C (single isomer, unassigned)
Ratio [1]: 5.2
Ratio (Mus musculus): 2.3
Ratio (T-cell): 3

C/C=C/C[C@@H](C)[C@@H](O)[C@H]1C(=O)N[C@@H](CC2CC2)C(=O)N(C)CC(=O)N(C)[C@@H](CC(C)C)C(=O)N[C@@H](C(C)C)C(=O)N(C)[C@@H](CC(C)C)C(=O)N[C@@H](C)C(=O)N[C@H](C)C(=O)N(C)[C@@H](CC(C)C)C(=O)N(C)[C@@H](CC(C)C)C(=O)N(C)C(C(C)C)C(=O)N1C (single isomer, unassigned)
Ratio [1]: 250
Ratio (Mus musculus): 120
Ratio (T-cell): 225

C/C=C/C[C@@H](C)[C@@H](O)[C@H]1C(=O)N[C@@H]([C@@H](C)O)C(=O)N(C)CC(=O)N(C)[C@@H](CC(C)C)C(=O)N[C@@H](C(C)C)C(=O)N(C)[C@@H](CC(C)C)C(=O)N[C@@H](C)C(=O)N[C@H](C)C(=O)N(C)[C@@H](CC(C)C)C(=O)N(C)[C@@H](CC(C)C)C(=O)N(C)C(C(C)C)C(=O)N1C (single isomer, unassigned)
Ratio [1]: 1.4
Ratio (Mus musculus): 1.7
Ratio (T-cell): 1

C/C=C/C[C@@H](C)[C@@H](O)[C@H]1C(=O)N[C@@H](C[C@@H](C)O)C(=O)N(C)CC(=O)N(C)[C@@H](CC(C)C)C(=O)N[C@@H](C(C)C)C(=O)N(C)[C@@H](CC(C)C)C(=O)N[C@@H](C)C(=O)N[C@H](C)C(=O)N(C)[C@@H](CC(C)C)C(=O)N(C)[C@@H](CC(C)C)C(=O)N(C)C(C(C)C)C(=O)N1C (single isomer, unassigned)
Ratio [1]: 207

C/C=C/C[C@@H](C)[C@@H](O)[C@H]1C(=O)N[C@@H](CCC)C(=O)N(C)CC(=O)N(C)[C@@H](CC(C)C)C(=O)N[C@@H](C(C)C)C(=O)N(C)[C@@H](CC(C)C)C(=O)N[C@@H](C)C(=O)N[C@H](C)C(=O)N(C)[C@@H](CC(C)C)C(=O)N(C)[C@@H](CC(C)C)C(=O)N(C)C(C(C)C)C(=O)N1C (single isomer, unassigned) [GECLOSPORIN]
Ratio [1]: 4
Ratio (Mus musculus): 1.6
Ratio (T-cell): 2.6
